From patent publication US10219516B2, “Molecules having pesticidal utility, and intermediates, compositions, and processes, related thereto” (priority 2015, dated 2019) come the findings set out here.

The structures appear in SMILES notation.

Common to all, as to type: in vivo
Test [1] concerns Beet Armyworm (Spodoptera exigua, LAPHEG). The test is described as follows: Bioassay on Beet Armyworm (BAW), 128-well diet tray assay. To be noted: Species BAW (Beet Armyworm), read-out: BAW (Biological Results, rating). A digest of the protocol: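 Artificial diet surface-treated with 50 μg/cm^2 test molecule in 90:10 acetone-water, dried, then infested with one to five second instar larvae per well. Held covered and vented at 25° C., 14:10 light-dark for five to seven days; percent mortality recorded per well and averaged over eight wells.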

Test [2] concerns Cabbage Looper (Trichoplusia ni, TRIPNI). The test is described as follows: Bioassay on Cabbage Looper (CL), 128-well diet tray assay. The note with it: Trichoplusia ni; Species CL (Cabbage Looper); read-out: CL (Biological Results, rating). A digest of the protocol: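 Second-instar larvae, one to five per well, were placed on artificial diet surface-treated with 50 μg/cm^2 test molecule applied in 90:10 acetone-water and dried, eight wells per molecule. Trays were covered, vented and held at 25° C., 14:10 light-dark for five to seven days; percent mortality per well was averaged.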

The subject of test [3] is Green Peach Aphid (Myzus persicae, MYZUPE). The test is described as follows: Bioassay on Green Peach Aphid (GPA), foliar spray on infested cabbage seedlings. To be noted: foliar, 72 h, Species GPA (Green Peach Aphid), read-out: GPA (Biological Results, rating). The procedure: Certain molecules disclosed in this document were tested against GPA using procedures described in the following example. In the reporting of the results, the “GPA & YFM Rating Table” was used (See Table Section).
Cabbage seedlings grown in 3-inch pots, with 2-3 small (3-5 cm) true leaves, were used as test substrate. The seedlings were infested with 20-50 GPA (wingless adult and nymph stages) one day prior to chemical application. Four pots with individual seedlings were used for each treatment. Test molecules (2 mg) were dissolved in 2 mL of acetone/methanol (1:1) solvent, forming stock solutions of 1000 ppm test molecule. The stock solutions were diluted 5× with 0.025% Tween 20 in water to obtain the solution at 200 ppm test molecule. A hand-held aspirator-type sprayer was used for spraying a solution to both sides of […] leaves until runoff. Reference plants (solvent check) were sprayed with the diluent only containing 20% by volume of acetone/methanol (1:1) solvent. Treated plants were held in a holding room for three days at approximately 25° C. and ambient relative humidity (RH) prior to grading. Evaluation was conducted by counting the number of live aphids per plant under a microscope. Percent control was measured using Abbott's correction formula (W. S. Abbott, “A Method of Computing the Effectiveness of an Insecticide” 3. Econ. Entomol. 18 (1925), pp. 265-267) as follows. Corrected % Control=100*(X−Y)/X where X=No. of live aphids on solvent check plants and Y=No. of live aphids on treated plants. The results are indicated in the table entitled “Table ABC: Biological Results” (See Table Section).

`O=C(Nc1ccc(F)cc1)c1cc(NC(=O)[C@H]2[C@H](c3cc(Cl)cc(Cl)c3)C2(Cl)Cl)c(F)cc1F` (relative stereo) [F49, trans-5-(2,2-Dichloro-3-(3,5-dichlorophenyl)cyclopropane-1-carboxamido)-2,4-difluoro-N-(4-fluorophenyl)benzamide]: the pest or weed control at 50 µg/cm2 in test [1] and in test [2] was 50 to 100% in each case. The pest or weed control at 200 µg/mL in test [3] is 0 to 80%.
On to `O=C(Nc1ccc(F)cc1)c1cc(NC(=O)[C@H]2[C@H](c3cc(Cl)c(F)c(Cl)c3)C2(Cl)Cl)ccc1Cl` (relative stereo) [F96, trans-2-Chloro-5-(2,2-dichloro-3-(3,5-dichloro-4-fluorophenyl)cyclopropane-1-carboxamido)-N-(4-fluorophenyl)benzamide], for which the pest or weed control at 50 µg/cm2 in test [1] and in test [2] was 50 to 100% throughout. The pest or weed control at 200 µg/mL in test [3] is 80 to 100%.
Regarding `Cc1cc(Cl)cc([C@H]2[C@H](C(=O)Nc3ccc(Cl)c(C(=O)N(C)c4ccc(F)cc4)c3)C2(Cl)Cl)c1` (relative stereo) [F117, trans-2-Chloro-5-(2,2-dichloro-3-(3-chloro-5-methylphenyl)cyclopropane-1-carboxamido)-N-(4-fluorophenyl)-N-methylbenzamide], the pest or weed control at 50 µg/cm2 in test [1] and in test [2] was 50 to 100% each time. Further, the pest or weed control at 200 µg/mL in test [3] lay within 0 to 80%.
Consider `Cc1cc([C@H]2[C@H](C(=O)Nc3ccc(Cl)c(C(=O)N(C)c4ccc(F)cc4)c3)C2(Cl)Cl)cc(Cl)c1Cl` (relative stereo) [F124, trans-2-Chloro-5-(2,2-dichloro-3-(3,4-dichloro-5-methylphenyl)cyclopropane-1-carboxamido)-N-(4-fluorophenyl)-N-methylbenzamide], for which the pest or weed control at 50 µg/cm2 in test [1] and in test [2] was 50 to 100% throughout. The pest or weed control at 200 µg/mL in test [3] lay in the range of 0 to 80%.
As to `O=C(Nc1ccc(F)cc1)c1cc(NC(=O)[C@H]2[C@H](c3cc(Cl)cc(Cl)c3)C2(Cl)Cl)ccn1` (relative stereo) [F126, trans-4-(2,2-dichloro-3-(3,5-dichlorophenyl)cyclopropane-1-carboxamido)-N-(4-fluorophenyl)picolinamide], the pest or weed control at 50 µg/cm2 in test [1] and in test [2] was 50 to 100% in each case. Besides, the pest or weed control at 200 µg/mL in test [3] is 0 to 80%.
As to `O=C(Nc1ccc(F)cc1)c1cccc(NC(=O)[C@H]2[C@H](c3cc(Cl)cc(Cl)c3)C2(Cl)Cl)c1Cl` (relative stereo) [F127, trans-2-Chloro-3-(2,2-dichloro-3-(3,5-dichlorophenyl)cyclopropane-1-carboxamido)-N-(4-fluorophenyl)benzamide], the pest or weed control at 50 µg/cm2 in test [1] and in test [2] was 50 to 100% in each case. In test [3], the pest or weed control at 200 µg/mL fell in the range of 0 to 80%.
With `COc1ccc(NC(=O)[C@H]2[C@H](c3cc(Cl)cc(Cl)c3)C2(Cl)Cl)cc1C(=O)Nc1ccc(F)cc1` (relative stereo) [F128, trans-5-(2,2-Dichloro-3-(3,5-dichlorophenyl)cyclopropane-1-carboxamido)-N-(4-fluorophenyl)-2-methoxybenzamide], the pest or weed control at 50 µg/cm2 in test [1] lay within 0 to 50%; in test [2], 50 to 100%. Besides, the pest or weed control at 200 µg/mL in test [3] was 0 to 80%.
In the same order, the values of `O=C(Nc1ccc(F)nc1)c1cc(NC(=O)[C@H]2[C@H](c3cc(Cl)cc(Cl)c3)C2(Cl)Cl)ccc1Cl` (relative stereo) [F142, trans-2-chloro-5-(2,2-dichloro-3-(3,5-dichlorophenyl)cyclopropane-1-carboxamido)-N-(6-fluoropyridin-3-yl)benzamide] are 50 to 100%, 50 to 100% and 80 to 100%.
Turning to `COc1ccc(NC(=O)c2cc(NC(=O)[C@H]3[C@H](c4cc(Cl)cc(Cl)c4)C3(Cl)Cl)ccc2Cl)cc1` (relative stereo) [F146, trans-2-chloro-5-(2,2-dichloro-3-(3,5-dichlorophenyl)cyclopropane-1-carboxamido)-N-(4-methoxyphenyl)benzamide], the pest or weed control at 50 µg/cm2 in test [1] and in test [2] was 50 to 100% throughout. Moreover, in test [3], the pest or weed control at 200 µg/mL was in the range of 80 to 100%.
On to `O=C(Nc1ccc(OC(F)(F)F)cc1)c1cc(NC(=O)[C@H]2[C@H](c3cc(Cl)cc(Cl)c3)C2(Cl)Cl)ccc1Cl` (relative stereo) [F147, trans-2-Chloro-5-(2,2-dichloro-3-(3,5-dichlorophenyl)cyclopropane-1-carboxamido)-N-(4-(trifluoromethoxy)phenyl)benzamide], for which the pest or weed control at 50 µg/cm2 in test [1] and in test [2] was 50 to 100% each time. In test [3], the pest or weed control at 200 µg/mL lay in the range of 0 to 80%.
With `O=C(Nc1ccc(OC(F)F)cc1)c1cc(NC(=O)[C@H]2[C@H](c3cc(Cl)cc(Cl)c3)C2(Cl)Cl)ccc1Cl` (relative stereo) [F148, trans-2-Chloro-5-(2,2-dichloro-3-(3,5-dichlorophenyl)cyclopropane-1-carboxamido)-N-(4-(difluoromethoxy)phenyl)benzamide], the pest or weed control at 50 µg/cm2 in test [1] and in test [2] was 50 to 100% each time. For the same molecule, in test [3], the pest or weed control at 200 µg/mL lay within 0 to 80%.
Take `COc1ccc(NC(=O)c2cc(NC(=O)[C@H]3[C@H](c4cc(Cl)cc(Cl)c4)C3(Cl)Cl)ccc2Cl)c(F)c1` (relative stereo) [F150, trans-2-Chloro-5-(2,2-dichloro-3-(3,5-dichlorophenyl)cyclopropane-1-carboxamido)-N-(2-fluoro-4-methoxyphenyl)benzamide]: the pest or weed control at 50 µg/cm2 in test [1] and in test [2] was 50 to 100% in each case. Moreover, the pest or weed control at 200 µg/mL in test [3] was 80 to 100%.
With `Cc1ccc(NC(=O)c2cc(NC(=O)[C@H]3[C@H](c4cc(Cl)cc(Cl)c4)C3(Cl)Cl)ccc2Cl)c(F)c1` (relative stereo) [F151, trans-2-Chloro-5-(2,2-dichloro-3-(3,5-dichlorophenyl)cyclopropane-1-carboxamido)-N-(2-fluoro-4-methylphenyl)benzamide], the pest or weed control at 50 µg/cm2 in test [1] and in test [2] was 50 to 100% throughout. Also, the pest or weed control at 200 µg/mL in test [3] was 80 to 100%.
Consider `CNC(=O)c1ccc(NC(=O)c2cc(NC(=O)[C@H]3[C@H](c4cc(Cl)cc(Cl)c4)C3(Cl)Cl)ccc2Cl)cc1` (relative stereo) [F152, trans-2-Chloro-5-(2,2-dichloro-3-(3,5-dichlorophenyl)cyclopropane-1-carboxamido)-N-(4-(methylcarbamoyl)phenyl)benzamide], for which the pest or weed control at 50 µg/cm2 in test [1] and in test [2] was 50 to 100% each time. Also, the pest or weed control at 200 µg/mL in test [3] fell in the range of 0 to 80%.
Take `CC(=O)Nc1ccc(NC(=O)c2cc(NC(=O)[C@H]3[C@H](c4cc(Cl)cc(Cl)c4)C3(Cl)Cl)ccc2Cl)cc1` (relative stereo) [F153, trans-N-(4-Acetamidophenyl)-2-chloro-5-(2,2-dichloro-3-(3,5-dichlorophenyl)cyclopropane-1-carboxamido)benzamide]: the pest or weed control at 50 µg/cm2 in test [1] and in test [2] was 50 to 100% throughout. In addition, the pest or weed control at 200 µg/mL in test [3] was 0 to 80%.
On to `O=C(Nc1cc(F)cc(F)c1)c1cc(NC(=O)[C@H]2[C@H](c3cc(Cl)cc(Cl)c3)C2(Cl)Cl)ccc1Cl` (relative stereo) [F154, trans-2-Chloro-5-(2,2-dichloro-3-(3,5-dichlorophenyl)cyclopropane-1-carboxamido)-N-(3,5-difluorophenyl)benzamide], for which the pest or weed control at 50 µg/cm2 in test [1] and in test [2] was 50 to 100% in each case. Further, in test [3], the pest or weed control at 200 µg/mL lay in the range of 80 to 100%.
In the case of `O=C(Nc1ccc(Cl)c(C(=O)N2CCc3cc(F)ccc32)c1)[C@H]1[C@H](c2cc(Cl)cc(Cl)c2)C1(Cl)Cl` (relative stereo) [F155, trans-2,2-Dichloro-N-(4-chloro-3-(5-fluoroindoline-1-carbonyl)phenyl)-3-(3,5-dichlorophenyl)cyclopropane-1-carboxamide], the pest or weed control at 50 µg/cm2 in test [1] and in test [2] was 50 to 100% each time. The pest or weed control at 200 µg/mL in test [3] lay in the range of 0 to 80%.
